“And” between values parts separate entries of the source, which are not always exact repeats. Identical values can stand only once.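 These data come from cells grown in 96-well plates and exposed to compound for 48 hours at five concentrations. Here, GI50 denotes the concentration required for 50% inhibition of growth. TGI marks complete inhibition of growth.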
Tests used:
Test in all cases: growth of human tumour cells (NCI), 48 h
MOLT-4 leukemia = tested on: MOLT-4 leukemia
UO-31 renal = tested on: UO-31 renal
SN12C renal = tested on: SN12C renal
NCI-H522 lung = tested on: NCI-H522 lung
K-562 leukemia = tested on: K-562 leukemia
DU-145 prostate = tested on: DU-145 prostate
SF-539 CNS = tested on: SF-539 CNS
MDA-MB-435 = tested on: MDA-MB-435

| SMILES | GI50 (MOLT-4 leukemia) | TGI (MOLT-4 leukemia) | GI50 (UO-31 renal) | TGI (UO-31 renal) | GI50 (SN12C renal) | TGI (SN12C renal) | GI50 (NCI-H522 lung) | TGI (NCI-H522 lung) | GI50 (K-562 leukemia) | GI50 (DU-145 prostate) | TGI (DU-145 prostate) | GI50 (SF-539 CNS) | TGI (SF-539 CNS) | GI50 (MDA-MB-435) | TGI (MDA-MB-435) | TGI (K-562 leukemia) |
| --- | --- | --- | --- | --- | --- | --- | --- | --- | --- | --- | --- | --- | --- | --- | --- | --- |
| O=C(c1ccc(OCCN2CCCCC2)cc1)c1c(-c2ccc(O)cc2)sc2cc(O)ccc12 | 2.8 µM and 4.86 µM | 10.8 µM and 23.2 µM | 10.1 µM and 9.8 µM | 22.3 µM and 27.7 µM | 13.5 µM and 14.5 µM | 29.7 µM and 29.8 µM | 11 µM and 16.5 µM | 28.6 µM and 37.3 µM | 2.5 µM and 7.63 µM | 11.7 µM and 14.9 µM | 23.9 µM and 30.2 µM | 12.1 µM and 11 µM | 27.2 µM and 25.7 µM | 1.94 µM and 4.2 µM | 4.58 µM and 19.7 µM | – |
| O=Cc1ccc(-c2ccc(-c3nc4ccccc4[nH]3)cc2)s1 | 32.4 µM | > 100 µM | – | – | 31.6 µM | 92.2 µM | 26.3 µM | > 100 µM | 17.7 µM | 25.8 µM | > 100 µM | – | – | 26.4 µM | 69.2 µM | 53 µM |
| COC(=O)[C@H]1[C@@H](O)[C@@]2(O)c3c(OC)cc(O[C@@H]4O[C@@H]([C@H](O)CO)CO[C@H]4OC)cc3O[C@@]2(c2ccc(OC)cc2)[C@@H]1c1ccccc1 | 0.0031 µM | – | 0.136 µM | 0.755 µM | 0.00359 µM | 0.0501 µM | 0.00344 µM | 0.0241 µM | 0.00386 µM | 0.00416 µM | 0.046 µM | 0.00187 µM | 0.00686 µM | 0.00358 µM | 0.0143 µM | > 1 µM |
| NC(=O)/C(=C\c1ccncc1)c1cccc2ccccc12 | – | > 100 µM | – | > 100 µM | – | > 100 µM | – | > 100 µM | – | – | > 100 µM | – | > 100 µM | – | > 100 µM | > 100 µM |
| COc1cc2c(c(OC)c1O)-c1ccc(OC)c(=O)cc1[C@@H](NC(=O)C(F)(F)F)CC2 | – | > 100 µM | – | > 100 µM | – | > 100 µM | – | 0.0665 µM | – | – | > 100 µM | – | 0.087 µM | – | 0.055 µM | > 100 µM |
| CCN1C(=O)N(CC)C2C1NN=c1s/c(=C\c3ccccc3F)c(=O)n12 (stereo unspecified) | 0.0419 µM | > 100 µM | 0.17 µM | > 69.4 µM | 0.0522 µM | > 100 µM | 0.0192 µM | 1.3 µM | 0.0301 µM | 0.0398 µM | > 100 µM | 0.0236 µM | 0.0696 µM | 0.0148 µM | 0.052 µM | > 100 µM |
| O=C1/C=C/[C@@H](O)[C@@H]2C[C@@H](O)C[C@H]2/C=C/CCC[C@H](CCc2ccc(C(F)(F)F)cc2)O1 | 0.32 µM | 0.832 µM | 0.259 µM | – | 0.329 µM | > 36.5 µM | 0.282 µM | 0.775 µM | 0.444 µM | 0.479 µM | > 100 µM | 0.522 µM | > 100 µM | 0.243 µM | > 72.1 µM | > 100 µM |
| COC(=O)C(Cc1cnc[nH]1)NC(=O)CNC(=O)CCCn1c(=O)c2c3ccccc3n(C)c2n2nnc(-c3ccccc3)c12 (stereo unspecified) | > 100 µM | > 100 µM | > 100 µM | > 100 µM | > 100 µM | > 100 µM | > 100 µM | > 100 µM | > 100 µM | > 100 µM | > 100 µM | > 100 µM | > 100 µM | > 100 µM | > 100 µM | > 100 µM |
| COc1c2ccoc2cc2oc(=O)ccc12 | – | > 100 µM | – | – | – | > 100 µM | – | > 100 µM | – | – | > 100 µM | – | > 100 µM | – | > 100 µM | > 100 µM |
| CN(C)CCCNC(=O)c1ccc2oc3cc4ccccc4c(=O)n3c2c1 | > 50 µM | > 50 µM | 18.3 µM | > 50 µM | 45.6 µM | > 50 µM | 17.4 µM | > 50 µM | 33.8 µM | 36.7 µM | > 50 µM | 13.6 µM | 30.5 µM | 31.6 µM | > 50 µM | > 50 µM |
| CN1CCC(CNc2ccc3ncc(-c4cccc(OC(F)(F)F)c4)n3n2)CC1 | 2.12 µM and 1.45 µM | 9.15 µM and 5.73 µM | 1.16 µM and 1.24 µM | 2.59 µM and 3.04 µM | 2.14 µM and 2.3 µM | 7.14 µM and > 10 µM | 1.64 µM and 1.52 µM | 3.33 µM and 3.57 µM | 1.65 µM and 1.7 µM | 3.35 µM and 3.6 µM | 13.4 µM and > 10 µM | 1.68 µM and 1.51 µM | 3.47 µM and 3.11 µM | 1.42 µM and 1.54 µM | 2.96 µM and 3.4 µM | 4.95 µM and 6.01 µM |
| CC(=O)[O-].CC(=O)[O-].O=C(N/N=C/c1cc(Cl)cc(Cl)c1O)c1ccncc1.[Ni+2] | – | > 100 µM | – | > 100 µM | – | > 100 µM | – | > 100 µM | – | – | – | – | > 100 µM | – | – | > 100 µM |
| Cc1cccc(-c2nn3c(c2-c2ccnc4ccc(C(N)=O)cc24)CCC3)n1 | > 100 µM | > 100 µM | > 100 µM | > 100 µM | > 100 µM | > 100 µM | > 100 µM | > 100 µM | > 100 µM | > 100 µM | > 100 µM | > 100 µM | > 100 µM | > 91.4 µM | > 100 µM | > 100 µM |
| COc1ccccc1/C=C/C(=O)c1c(O)cc2occc2c1OC | – | – | > 100 µM | > 100 µM | > 100 µM | > 100 µM | > 100 µM | > 100 µM | – | 23.5 µM | > 100 µM | 24.3 µM | > 100 µM | 5.96 µM | > 100 µM | – |
| CCN(CC)CCCC(C)Nc1cc(-c2ccc(C(F)(F)F)cc2)c(C#N)c2nc3ccccc3n12 (stereo unspecified) | 3.19 µM | 12.1 µM | 1.41 µM | 2.87 µM | – | – | – | – | – | 3.55 µM | 11.4 µM | – | – | 1.67 µM | 3.14 µM | – |
| C=C(C)[C@@H]1CC[C@]2(C(N)=O)CC[C@]3(C)[C@H](CC[C@@H]4[C@@]5(C)CC[C@H](O)C(C)(C)[C@@H]5CC[C@]43C)[C@@H]12 | 3.43 µM | 18.3 µM | 1.72 µM | 3.34 µM | 3 µM | 10.6 µM | 3.13 µM | 16.3 µM | 3.04 µM | 3.21 µM | 10.1 µM | 1.78 µM | 3.4 µM | 8.65 µM | > 100 µM | 19.4 µM |
| COC(=O)NC1(NC(=O)OC)NC(=O)c2cc(OC)c(OC)cc2N1 | – | – | – | > 100 µM | – | > 100 µM | – | 80 µM | – | – | > 100 µM | – | 60.8 µM | – | 13.7 µM | > 100 µM |
| O=c1[nH]cc(/C=N\Nc2ccccc2)c(=O)[nH]1 | – | – | – | > 100 µM | – | > 100 µM | – | > 100 µM | – | – | > 100 µM | – | > 100 µM | – | > 100 µM | > 100 µM |
